Earlier results as cited in patent US10357461B2, “Physically dispersed, molecularly dissolved and/or chemically bound drug(s) in an empty, hard capsule shell composition” (priority 2005, dated 2019).
Converted amounts (≈) assume the structure as drawn. Blank lines part the entries; values can stand above or below the molecule they belong to.

Tests used:
[1] = people taking metformin

SMILES: COc1cc2c(c(OC)c1OC)-c1ccc(OC)c(=O)cc1[C@@H](NC(C)=O)CC2 [Colchicine]
solubility in water (water): 7000 µg/mL (≈ 17.5 mM)

water solubility (water at 25° C.): 1.8 µg/mL (≈ 0.00491 mM)
SMILES: C[C@]12CCC(=O)C=C1[C@@H]1C[C@@H]1[C@H]1[C@@H]3[C@@H]4C[C@@H]4[C@@]4(CCC(=O)O4)[C@@]3(C)CC[C@@H]12 [Drospirenone]

people taking the drug who face vitamin B12 deficiency [1]: ~30%
SMILES: CN(C)C(=N)N=C(N)N [metformin]
